Test results: PubChem BioAssay AID330 (DTP/NCI, 2004)
“And” between values parts separate entries of the source, which are not always exact repeats. Equal entries are not always repeated. Toxic doses and inconclusive results are not listed.

System: P388 leukemia ip, CD2F1 mice, survival T/C
Test: NCI In Vivo Anticancer Drug Screen. Data for tumor model P388 Leukemia (intraperitoneal) in CD2F1 (CDF1) mice
Conditions: endpoint: median survival time, higher = longer survival
How it was run: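 Mice carrying the transplanted tumor received test compound or vehicle. Survival was recorded in each group, and the value is the treated-group measurement divided by that of the vehicle-treated control group.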

[1] = dose: 100.0 mg/kg/injection, schedule: Q01DX005 (ip), vehicle: saline with Tween-80
[2] = dose: 200.0 mg/kg/injection, schedule: Q01DX005 (ip), vehicle: saline with Tween-80
[3] = dose: 100.0 mg/kg/injection, schedule: Q01DX005 (ip), vehicle: Klucel (hydroxypropylcellulose) (HPC)

In the case of CCCN=C1NS(=O)(=O)c2ccccc21, the T/C (dose: 50.0 mg/kg/injection, schedule: Q01DX005 (ip), vehicle: saline with Tween-80) is reported as 110 % of control, the T/C [1] is reported as 98 % of control and the T/C [2] is reported as 93 % of control.
With O=C(O)c1ccc(N=Nc2ccc(N(CCCl)CCCl)cc2C(=O)O)cc1 the T/C (dose: 50.0 mg/kg/injection, schedule: Q01DX001 (ip), vehicle: Klucel (hydroxypropylcellulose) (HPC)) was 100 % of control and the T/C (dose: 100.0 mg/kg/injection, schedule: Q01DX001 (ip), vehicle: Klucel (hydroxypropylcellulose) (HPC)) was 107 % of control.
In the case of O=C1C(Cl)=C(NCCC2CCCN3CCCCC23)C(=O)c2ccccc21 (configuration not stated), the T/C (dose: 12.5 mg/kg/injection, schedule: Q01DX005 (ip), vehicle: Klucel (hydroxypropylcellulose) (HPC)) is reported as 99 % of control and 101 % of control and 93 % of control, the T/C (dose: 25.0 mg/kg/injection, schedule: Q01DX005 (ip), vehicle: Klucel (hydroxypropylcellulose) (HPC)) is reported as 98 % of control and 99 % of control and 97 % of control and the T/C [3] is reported as 109 % of control and 111 % of control.
For C=C[C@H]1[C@H](OC2OC(CO)C(O)C(O)C2O)OC=C2C(=O)OCC[C@H]21 (some centres not stated), the T/C (dose: 0.75 mg/kg/injection, schedule: Q01DX005 (ip), vehicle: water) was 95 % of control, the T/C (dose: 1.5 mg/kg/injection, schedule: Q01DX005 (ip), vehicle: water) was 95 % of control and the T/C (dose: 3.0 mg/kg/injection, schedule: Q01DX005 (ip), vehicle: water) was 93 % of control. For the same compound, the T/C (dose: 6.0 mg/kg/injection, schedule: Q01DX005 (ip), vehicle: water) was 93 % of control.
In the case of O=C1c2ccccc2C(=O)c2c(-c3ccc(Cl)cc3)noc21, the T/C (dose: 50.0 mg/kg/injection, schedule: Q01DX005 (ip), vehicle: Klucel (hydroxypropylcellulose) (HPC)) is reported as 94 % of control, the T/C [3] is reported as 93 % of control and the T/C (dose: 200.0 mg/kg/injection, schedule: Q01DX005 (ip), vehicle: Klucel (hydroxypropylcellulose) (HPC)) is reported as 90 % of control.
Cn1c2nc(-[n+]3ccc(Cc4ccccc4)cc3)nc-2c([O-])n(C)c1=O was tested, and the T/C (dose: 100.0 mg/kg/injection, schedule: Q04DX002 (ip), vehicle: saline) was 100 % of control, the T/C (dose: 200.0 mg/kg/injection, schedule: Q04DX002 (ip), vehicle: saline) was 99 % of control and the T/C (dose: 400.0 mg/kg/injection, schedule: Q04DX002 (ip), vehicle: saline) was 95 % of control.
Cc1nc(N)nc(N)c1N1CCN(c2ccc(C(=O)NC(CCC(=O)O)C(=O)O)cc2)CC1 (configuration not stated) was tested, and the T/C (dose: 1.56 mg/kg/injection, schedule: Q01DX005 (ip), vehicle: water) was 111 % of control, the T/C (dose: 12.5 mg/kg/injection, schedule: Q01DX005 (ip), vehicle: distilled water + Tween-80) was 168 % of control and the T/C (dose: 12.5 mg/kg/injection, schedule: Q01DX005 (ip), vehicle: water) was 150 % of control. The T/C (dose: 25.0 mg/kg/injection, schedule: Q01DX005 (ip), vehicle: distilled water + Tween-80) was 176 % of control, the T/C (dose: 25.0 mg/kg/injection, schedule: Q01DX005 (ip), vehicle: water) was 176 % of control and the T/C (dose: 50.0 mg/kg/injection, schedule: Q01DX005 (ip), vehicle: water) was 222 % of control. For the same compound, the T/C (dose: 100.0 mg/kg/injection, schedule: Q01DX005 (ip), vehicle: distilled water + Tween-80) was 87 % of control.
With CCOC(=O)C1C2(C(C)=O)C(C)=Nc3c(C#N)cnn3C12C(=O)OCC (configuration not stated) the T/C (dose: 6.25 mg/kg/injection, schedule: Q01DX005 (ip), vehicle: saline with Tween-80) was 105 % of control, the T/C (dose: 12.5 mg/kg/injection, schedule: Q01DX005 (ip), vehicle: saline with Tween-80) was 100 % of control and the T/C (dose: 25.0 mg/kg/injection, schedule: Q01DX005 (ip), vehicle: saline with Tween-80) was 104 % of control. For the same compound, the T/C [1] was 92 % of control and the T/C [2] was 91 % of control.
In the case of O=C1NC(=O)C2(CCc3ccccc3C2)N1 (configuration not stated), the T/C (dose: 50.0 mg/kg/injection, schedule: Q01DX009 (ip), vehicle: saline with Tween-80) is reported as 100 % of control, the T/C (dose: 100.0 mg/kg/injection, schedule: Q01DX009 (ip), vehicle: saline with Tween-80) is reported as 100 % of control and the T/C (dose: 200.0 mg/kg/injection, schedule: Q01DX009 (ip), vehicle: saline with Tween-80) is reported as 96 % of control. For the same compound, the T/C (dose: 400.0 mg/kg/injection, schedule: Q01DX009 (ip), vehicle: saline with Tween-80) was 97 % of control.
CC[N+](CC)(CC)c1ccccc1 was tested, and the T/C (dose: 6.25 mg/kg/injection, schedule: Q04DX002 (ip), vehicle: saline) was 105 % of control, the T/C (dose: 12.5 mg/kg/injection, schedule: Q04DX002 (ip), vehicle: saline) was 111 % of control and the T/C (dose: 25.0 mg/kg/injection, schedule: Q04DX002 (ip), vehicle: saline) was 100 % of control and 104 % of control.
With C1COCCOCCNCCOCCOCCN1 the T/C (dose: 50.0 mg/kg/injection, schedule: Q01DX005 (ip), vehicle: saline) was 95 % of control and the T/C (dose: 100.0 mg/kg/injection, schedule: Q01DX005 (ip), vehicle: saline) was 98 % of control.
C[N+](C)(C)CCCO was tested, and the T/C (dose: 12.5 mg/kg/injection, schedule: Q01DX009 (ip), vehicle: saline) was 98 % of control, the T/C (dose: 25.0 mg/kg/injection, schedule: Q01DX009 (ip), vehicle: saline) was 94 % of control and the T/C (dose: 50.0 mg/kg/injection, schedule: Q01DX009 (ip), vehicle: saline) was 93 % of control.
